Experimental data as given in patent publication US10584115B2, “Substituted pyridine and pyrazine BMI-1 inhibitors” (PTC Therapeutics, Inc., priority 2013, dated 2020).
Read-outs that look alike come from different tables or passages of the source.

Assays:
[1] = tested on: Bmi-1 protein; assay: Sandwich ELISA Assay (Bmi-1 protein level in HT-1080 cells after compound treatment); format: cell-based
Method in brief: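 Sandwich ELISA quantified Bmi-1 protein against recombinant standard (125–8000 pg/mL), with lysates captured overnight at 4 °C and signal by HRP/TMB at 450 nm (570 nm reference). Lysates came from HT-1080 cells incubated 40–48 h with test compounds in 0.5% DMSO.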

[2] = read-out: ELISA EC50 value for Bmi-1 protein, Table 1, Bmi-1 sandwich ELISA
[3] = Table 1, Bmi-1 sandwich ELISA, read-out: ELISA EC50 value for Bmi-1 protein

Structure (SMILES) | melting point [°C] | EC50 [1, 3] [nM] | EC50 [1, 2] [nM]
CS(=O)(=O)c1ccc(Nc2cncc(-c3c(C(F)(F)F)nc4ccccn34)n2)cc1 [compound 68, N-[4-(methylsulfonyl)phenyl]-6-[2-(trifluoromethyl)imidazo[1,2-a]pyridin-3-yl]pyrazin-2-amine] | 256 to 258 |  | 100 to 3000
CCn1nc(C)c(-c2cncc(Nc3ccc(OC(F)(F)F)cc3)n2)c1C [compound 84, 6-(1-ethyl-3,5-dimethyl-1H-pyrazol-4-yl)-N-[4-(trifluoromethoxy)phenyl]pyrazin-2-amine] | 142 to 143 | 1 to 10 | 
FC(F)(F)Oc1ccc(Nc2cncc(-c3cccc4nc(C5CC5)cn34)n2)cc1 [compound 87, 6-(2-cyclopropylimidazo[1,2-a]pyridin-5-yl)-N-[4-(trifluoromethoxy)phenyl]pyrazin-2-amine] | 225 to 227 | 100 to 3000 | 
FC(F)(F)c1ccc(Nc2cncc(-c3cccc4nc(C5CC5)cn34)n2)cc1 [compound 89, 6-(2-cyclopropylimidazo[1,2-a]pyridin-5-yl)-N-[4-(trifluoromethyl)phenyl]pyrazin-2-amine] | 266 to 268 | 100 to 3000 | 
FC1(F)Oc2ccc(Nc3cncc(-c4c(C(F)(F)F)nc5ccccn45)n3)cc2O1 [compound 91, N-(2,2-difluoro-1,3-benzodioxol-5-yl)-6-[2-(trifluoromethyl)imidazo[1,2-a]pyridin-3-yl]pyrazin-2-amine] | 232 to 234 | 100 to 3000 | 
Cc1csc(Nc2cncc(-c3c(C(F)(F)F)nc4ccccn34)n2)n1 [compound 96, N-(4-methyl-1,3-thiazol-2-yl)-6-[2-(trifluoromethyl)imidazo[1,2-a]pyridin-3-yl]pyrazin-2-amine] | 317 to 319 | 100 to 3000 | 
COc1ccc(Nc2cccc(-c3c(C(F)(F)F)nc4ccc(OC)cn34)n2)cc1 [compound 104, N-(4-methoxyphenyl)-6-[6-methoxy-2-(trifluoromethyl)imidazo[1,2-a]pyridin-3-yl]pyridin-2-amine] | 139 to 140 | 10 to 100 | 
FC(F)(F)c1ccc(Nc2cncc(-c3cccc4nc(C5CCC5)cn34)n2)cc1 [compound 114, 6-(2-cyclobutylimidazo[1,2-a]pyridin-5-yl)-N-[4-(trifluoromethyl)phenyl]pyrazin-2-amine] | 288 to 290 | 100 to 3000 | 
FC(F)Oc1ccc(Nc2cncc(-c3cccc4nc(C5CCC5)cn34)n2)cc1 [compound 115, 6-(2-cyclobutylimidazo[1,2-a]pyridin-5-yl)-N-[4-(difluoromethoxy)phenyl]pyrazin-2-amine] | 252 to 253 | 10 to 100 | 
COc1ccc(Nc2cncc(-c3cccc4nc(C5CCC5)cn34)n2)cc1 [compound 116, 6-(2-cyclobutylimidazo[1,2-a]pyridin-5-yl)-N-(4-methoxyphenyl)pyrazin-2-amine] | 223 to 225 | 10 to 100 | 
FC1(F)Oc2ccc(Nc3cncc(-c4cccc5nc(C6CCC6)cn45)n3)cc2O1 [compound 117, 6-(2-cyclobutylimidazo[1,2-a]pyridin-5-yl)-N-(2,2-difluoro-1,3-benzodioxol-5-yl)pyrazin-2-amine] | 302 to 305 | 100 to 3000 | 
Cc1noc(C)c1-c1cncc(Nc2ccc(C(F)(F)F)cc2)n1 [compound 127, 6-(3,5-dimethyl-1,2-oxazol-4-yl)-N-[4-(trifluoromethyl)phenyl]pyrazin-2-amine] | 208 to 210 |  | 10 to 100
Cc1nn(C)c(C)c1-c1cncc(Nc2ccc(C(F)(F)F)cc2)n1 [compound 128, N-[4-(trifluoromethyl)phenyl]-6-(1,3,5-trimethyl-1H-pyrazol-4-yl)pyrazin-2-amine] | 201 to 202 | 1 to 10 | 
FC(F)(F)c1ccc(Nc2cncc(-c3c(C4CC4)nc4ccccn34)n2)cc1 [compound 129, 6-(2-cyclopropylimidazo[1,2-a]pyridin-3-yl)-N-[4-(trifluoromethyl)phenyl]pyrazin-2-amine] | 215 to 217 |  | 1 to 10
FC(F)Oc1ccc(Nc2cncc(-c3c(C4CC4)nc4ccccn34)n2)cc1 [compound 130, 6-(2-cyclopropylimidazo[1,2-a]pyridin-3-yl)-N-[4-(difluoromethoxy)phenyl]pyrazin-2-amine] | 208 to 210 | 1 to 10 | 
FC(F)(F)c1ccc(Nc2cncc(-c3c(C4CCC4)nc4ccccn34)n2)cc1 [compound 131, 6-(2-cyclobutylimidazo[1,2-a]pyridin-3-yl)-N-[4-(trifluoromethyl)phenyl]pyrazin-2-amine] | 218 to 219 | 1 to 10 | 
Cc1nn(C)c(C)c1-c1cccc(Nc2ccc(C(F)(F)F)cc2)n1 [compound 145, N-[4-(trifluoromethyl)phenyl]-6-(1,3,5-trimethyl-1H-pyrazol-4-yl)pyridin-2-amine] | 48 to 50 | 10 to 100 | 
Cc1nn(C)c(C)c1-c1cccc(Nc2ccc(OC(F)F)cc2)n1 [compound 146, N-[4-(difluoromethoxy)phenyl]-6-(1,3,5-trimethyl-1H-pyrazol-4-yl)pyridin-2-amine] | 71 to 72 | 10 to 100 | 
CCn1nc(C)c(-c2cncc(Nc3ccc(C(F)(F)F)cc3)n2)c1C [compound 175, 6-(1-ethyl-3,5-dimethyl-1H-pyrazol-4-yl)-N-[4-(trifluoromethyl)phenyl]pyrazin-2-amine] | 78 to 79 |  | 1 to 10
CCc1nc(C)cn1-c1cncc(Nc2ccc(C(F)(F)F)cc2)n1 [compound 179, 6-(2-ethyl-4-methyl-1H-imidazol-1-yl)-N-[4-(trifluoromethyl)phenyl]pyrazin-2-amine] | 207 to 208 |  | 100 to 3000

Now from value to compound, other results behind:

melting point [°C] | EC50 [1, 3] [nM] | Structure (SMILES) | EC50 [1, 2] [nM]
270 to 271 | 100 to 3000 | Cc1cnc(Nc2cccc(-c3c(C(F)(F)F)nc4ccccn34)n2)s1 [compound 147, N-(5-methyl-1,3-thiazol-2-yl)-6-[2-(trifluoromethyl)imidazo[1,2-a]pyridin-3-yl]pyridin-2-amine] | 
259 to 261 | 10 to 100 | Cc1csc(Nc2cccc(-c3c(C(F)(F)F)nc4ccccn34)n2)n1 [compound 148, N-(4-methyl-1,3-thiazol-2-yl)-6-[2-(trifluoromethyl)imidazo[1,2-a]pyridin-3-yl]pyridin-2-amine] | 
227 to 228 | 100 to 3000 | Cc1nc(Nc2cccc(-c3c(C(F)(F)F)nc4ccccn34)n2)sc1C [compound 149, N-(4,5-dimethyl-1,3-thiazol-2-yl)-6-[2-(trifluoromethyl)imidazo[1,2-a]pyridin-3-yl]pyridin-2-amine] | 
317 to 320 | 1 to 10 | FC(F)(F)c1nc2ccccn2c1-c1cncc(Nc2ccc(C3CC3)cc2)n1 [compound 165, N-(4-cyclopropylphenyl)-6-[2-(trifluoromethyl)imidazo[1,2-a]pyridin-3-yl]pyrazin-2-amine] | 
70 to 71 | 10 to 100 | CCS(=O)(=O)n1nc(C)c(-c2cncc(Nc3ccc(C(F)(F)F)cc3)n2)c1C [compound 176, 6-[1-(ethylsulfonyl)-3,5-dimethyl-1H-pyrazol-4-yl]-N-[4-(trifluoromethyl)phenyl]pyrazin-2-amine] | 
227 to 229 | 100 to 3000 | COC(=O)c1ccc2nc(C(F)(F)F)c(-c3cncc(Nc4ccc(OC(F)F)cc4)n3)n2c1 [compound 178, methyl 3-(6-{[4-(difluoromethoxy)phenyl]amino}pyrazin-2-yl)-2-(trifluoromethyl)imidazo[1,2-a]pyridine-6-carboxylate] | 
 | 100 to 3000 | Fc1ccc2nc(C(F)(F)F)c(-c3cncc(Nc4ccc(Cl)cc4)n3)n2c1 [compound 670, N-(4-chlorophenyl)-6-[6-fluoro-2-(trifluoromethyl)imidazo[1,2-a]pyridin-3-yl]pyrazin-2-amine] | 
 | 100 to 3000 | Cc1ccc(Nc2cncc(-c3c(C(F)(F)F)nc4ccc(F)cn34)n2)cc1 [compound 671, 6-[6-fluoro-2-(trifluoromethyl)imidazo[1,2-a]pyridin-3-yl]-N-(4-methylphenyl)pyrazin-2-amine] | 
 | 100 to 3000 | COc1ccc2nc(C)c(-c3cc(C#N)cc(Nc4ccc(C)cc4)n3)n2c1 [compound 673, 2-(6-methoxy-2-methylimidazo[1,2-a]pyridin-3-yl)-6-[(4-methylphenyl)amino]pyridine-4-carbonitrile] | 
 | 100 to 3000 | COc1ccc2nc(C)c(-c3cc(C#N)cc(Nc4ccc(F)cc4)n3)n2c1 [compound 674, 2-[(4-fluorophenyl)amino]-6-(6-methoxy-2-methylimidazo[1,2-a]pyridin-3-yl)pyridine-4-carbonitrile] | 
 | 10 to 100 | COc1ccc2nc(C)c(-c3cc(C#N)cc(Nc4ccccc4)n3)n2c1 [compound 675, 2-(6-methoxy-2-methylimidazo[1,2-a]pyridin-3-yl)-6-(phenylamino)pyridine-4-carbonitrile] | 
 | 10 to 100 | COc1ccc2nc(C)c(-c3cc(C#N)cc(Nc4ccc(Cl)cc4)n3)n2c1 [compound 676, 2-[(4-chlorophenyl)amino]-6-(6-methoxy-2-methylimidazo[1,2-a]pyridin-3-yl)pyridine-4-carbonitrile] | 
 | 100 to 3000 | COc1ccc2nc(C)c(-c3cc(C#N)cc(Nc4ccc(OC(F)F)cc4)n3)n2c1 [compound 677, 2-{[4-(difluoromethoxy)phenyl]amino}-6-(6-methoxy-2-methylimidazo[1,2-a]pyridin-3-yl)pyridine-4-carbonitrile] | 
 | 10 to 100 | Cc1nc2cc(F)c(F)cc2n1-c1cncc(Nc2ccc(C(F)(F)F)cc2)n1 [compound 683, 6-(5,6-difluoro-2-methyl-1H-benzimidazol-1-yl)-N-[4-(trifluoromethyl)phenyl]pyrazin-2-amine] | 
